From ChEMBL document CHEMBL1201862, “PubChem BioAssay data set” (2004)
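These data come from cells grown in 96-well plates and exposed to compound for 48 hours at five concentrations. Abbreviation: GI50, concentration required for 50% inhibition of growth.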 Active and inactive are the calls of the source. No stated cut-off is given here; in the data, active = GI50 up to about 1.1 µM and inactive = higher.

What was measured:
Experiment in all cases: inhibition of tumour cell growth, NCI panel, 48 h
HL-60 = test system: HL-60
HT-29 = test system: HT-29
LOX IMVI = test system: LOX IMVI
MDA-MB-231 = test system: MDA-MB-231
MDA-N = test system: MDA-N
MOLT-4 = test system: MOLT-4
NCI-H226 = test system: NCI-H226
RXF 393 = test system: RXF 393
SF-268 = test system: SF-268
SF-295 = test system: SF-295
SNB-19 = test system: SNB-19
SR = test system: SR
SW-620 = test system: SW-620
T47D = test system: T47D
TK-10 = test system: TK-10
UACC-62 = test system: UACC-62
DMS-273 = test system: DMS-273
KM-20L2 = test system: KM-20L2
OVCAR-3 = test system: OVCAR-3
SNB-78 = test system: SNB-78

SMILES | GI50 (HL-60) | GI50 (HT-29) | GI50 (LOX IMVI) | GI50 (MDA-MB-231) | GI50 (MDA-N) | GI50 (MOLT-4) | GI50 (NCI-H226) | GI50 (RXF 393) | GI50 (SF-268) | GI50 (SF-295) | GI50 (SNB-19) | GI50 (SR) | GI50 (SW-620) | GI50 (T47D) | GI50 (TK-10) | GI50 (UACC-62) | GI50 (DMS-273) | GI50 (KM-20L2) | GI50 (OVCAR-3) | GI50 (SNB-78)
Cc1ccc2[nH]c3c(c(=O)n(C)c(=O)n3C)c2c1 | > 100 µM (inactive) | > 100 µM (inactive) | > 100 µM (inactive) | > 100 µM (inactive) | > 100 µM (inactive) | > 100 µM (inactive) | > 100 µM (inactive) | > 10 µM (inactive) | > 100 µM (inactive) | > 100 µM (inactive) | > 100 µM (inactive) | 84.9 µM (inactive) | > 100 µM (inactive) | > 100 µM (inactive) | > 100 µM (inactive) | > 100 µM (inactive) | – | – | – | –
COc1cc(C2C(C(=O)O)=C(CO)Oc3cc4c(cc32)OCO4)cc(OC)c1O (stereo not given) | > 100 µM (inactive) | > 100 µM (inactive) | > 100 µM (inactive) | – | – | > 100 µM (inactive) | – | – | – | > 100 µM (inactive) | > 100 µM (inactive) | – | > 100 µM (inactive) | – | > 100 µM (inactive) | > 100 µM (inactive) | > 100 µM (inactive) | > 100 µM (inactive) | > 100 µM (inactive) | > 100 µM (inactive)
CC1(C)OP23(NC(=O)OC2(C(F)(F)F)c2ccccc2O3)OC1(C)C (stereo not given) | > 100 µM (inactive) | > 100 µM (inactive) | > 100 µM (inactive) | – | – | > 100 µM (inactive) | > 100 µM (inactive) | > 100 µM (inactive) | > 100 µM (inactive) | > 100 µM (inactive) | > 100 µM (inactive) | – | – | – | > 100 µM (inactive) | > 100 µM (inactive) | > 100 µM (inactive) | – | > 100 µM (inactive) | > 100 µM (inactive)
Cc1nc2ccccc2n1C(=O)c1c(F)c(F)c(F)c(F)c1F | 4.49 µM (inactive) | 4.98 µM (inactive) | 8.93 µM (inactive) | 16.2 µM (inactive) | 8.69 µM (inactive) | 4.07 µM (inactive) | 18.8 µM (inactive) | 15.5 µM (inactive) | 27 µM (inactive) | 28.8 µM (inactive) | 29.5 µM (inactive) | 2.34 µM (inactive) | 5.09 µM (inactive) | 59.8 µM (inactive) | 18.3 µM (inactive) | 16.1 µM (inactive) | – | – | 24.3 µM (inactive) | –
ClCC1(CCl)COC1 | > 100 µM (inactive) | > 100 µM (inactive) | > 100 µM (inactive) | > 100 µM (inactive) | > 100 µM (inactive) | > 100 µM (inactive) | > 100 µM (inactive) | > 100 µM (inactive) | > 100 µM (inactive) | > 100 µM (inactive) | > 100 µM (inactive) | > 100 µM (inactive) | > 100 µM (inactive) | > 100 µM (inactive) | > 100 µM (inactive) | – | – | – | > 100 µM (inactive) | –
c1ccc(NN/N=N/c2ccc(-c3nc4ccccc4[nH]3)cc2)cc1 | 22 µM (inactive) | 25 µM (inactive) | 15.2 µM (inactive) | 72.8 µM (inactive) | 29.9 µM (inactive) | 14.5 µM (inactive) | 36.9 µM (inactive) | 21.3 µM (inactive) | – | 25.6 µM (inactive) | > 100 µM (inactive) | 31.8 µM (inactive) | 52.4 µM (inactive) | 8.17 µM (inactive) | 64.4 µM (inactive) | – | – | – | 15.6 µM (inactive) | –
C/C(=N\NC(=S)N1CCCCCC1)c1nccnc1C | 0.0508 µM (active) | 0.0719 µM (active) | < 0.01 µM (active) | – | – | 0.0658 µM (active) | – | 0.231 µM (active) | 0.176 µM (active) | 0.124 µM (active) | – | – | < 0.01 µM (active) | – | 0.56 µM (active) | < 0.01 µM (active) | < 0.01 µM (active) | < 0.01 µM (active) | < 0.01 µM (active) | 0.885 µM (active)
